Assay results published in US9765329B2, “Adipocyte-targeting non-viral gene delivery system” (INDUSTRY-UNIVERSITY COOPERATION FOUNDATION HANYANG …, priority 2013, dated 2017).
Entries after “also recorded” stand apart in the source; their conditions may differ. Square brackets hold non-standard residues; d marks the D form. Ends that are not written are not given here. Peptide text beside a SMILES is read from it.

What was measured:
[1] = test system: 3T3-L1 differentiated adipocytes; assay: Internalization of FITC-ATS-R9 into cells (confocal microscopy); assay type: cell-based; conditions: FITC-conjugated ATS-R9 25 μg/ml, adipocytes at day 10
Method: (§1) Cellmask Deep Red was purchased from Invitrogen and DAPI-Fluoromount-G was purchased from Southern Biotech. 3T3-L1 preadipocytes, H9c2, and HEK293 cells were grown and differentiated on coverslips placed in 6 well plates.
(§2) After 24 h of seeding, the cells were treated with the FITC conjugated ATS-R9 (25 μg/ml) and incubated in a time-dependent manner that ranged from 15 min to 72 h.
(§3) After incubation, culture media were replaced, and the cells were washed three times with PBS and fixed in 3.7% formaldehyde. The plasma membranes of the cells were stained with Cellmask Deep Red. The cells were washed again with PBS and mounted in the presence of DAPI to stain the nuclei. Images were captured with a Carl Zeiss confocal microscope.
(§4) To monitor the degree of internalization of ATS-R9 into cells, mature adipocytes and preadipocytes were treated with FITC-labeled ATS-R9 (FITC-ATS-R9) and the delivery of the support to the cells was investigated.
3T3-L1 differentiated adipocytes (at day 10) were treated with FITC-conjugated ATS-R9 (25 μg/ml) and incubated for predetermined periods. The plasma membranes of the cells were stained with Cellmask Deep Red and the nuclei were counterstained with DAPI. Blue channel (for DAPI) is depicted as white to show nuclear localization of ATS-R9. Images were captured with a confocal laser scanning microscope. Scale bar: 10 μm.

3T3-L1 preadipocytes [2] = assay: as above; assay type: cell-based
Method: as §1, §2, §3, §4

[3] = test system: luciferase plasmid DNA (p-β-Luci); assay: Gel retardation assay; assay type: physicochemical; conditions: charge ratio of ≧3
Method: 1 μg of luciferase plasmid DNA (p-β-Luci, Promega (USA)), deionized water, and ATS-R9 (charge ratios: 0.25, 0.5, 1, 3, 5, 7, and 9) were incubated for 30 min at room temperature to construct oligo-peptoplexes. The oligo-peptoplexes were subjected to electrophoresis under 0.5% TBE buffer solution in 0.8% agarose gel for 25 min (100 V). Naked DNA was used as a control. The DNA condensation efficiency of the ATS-R9 was compared with that of branched PEI (25 KDa, Sigma, USA).
The condensation efficacy of ATS-R9 was compared with that of branched PEI (25 kDa).
Oligo-peptoplexes were prepared with luciferase plasmid DNA (p-β-Luci), deionized water, and ATS-R9 or PEI with predetermined charge ratios and incubated for 30 min at room temperature.

Serum protection assay = assay type: in vitro ADME; conditions: 50% (vol/vol) mouse serum, 2 h at 37° C., optimum charge ratio
Method: Oligo-peptoplexes were prepared at predetermined charge ratios, mouse serum was added to the polyplexes at a final concentration of 50% (vol/vol), and the samples were incubated for 2 h at 37° C.
For the decomplexation of DNA from the polyplexes after serum incubation, heparin in phosphate-buffered saline (pH 7.4, 0.5 mol/l NaCl) was added to the samples in the presence of 0.01 mol/l EDTA and incubated for 1 h. The samples were loaded in 0.8% agarose gel.

[4] = Zeta potential and size measurement (DLS); assay type: physicochemical
Method: 5 μg of luciferase plasmid DNA (p-β-Luci), deionized water, and ATS-R9 (charge ratios: 0.5, 1, 3, 5, 7, and 9) were incubated for 30 min at room temperature to construct oligo-peptoplexes. The mean diameters and surface zeta potentials of the oligo-peptoplexes were measured using DLS equipped with a Zetasizer-Nano ZS (Malvern Instruments, UK).

[5] = In vitro cytotoxicity (MTT) assay; assay type: cell-based; conditions: mouse, 3T3-L1 differentiated adipocytes (day 10); adipocytes at day 10, 48 h after transfection, charge ratio up to 9; read-out: cell viability
Method: (§5) Cell viability was measured by MTT [3-(4,5-dimethylthiazol-2-yl)-2,5-diphenyltetrazolium bromide]assay.
(§6) 3T3-L1 differentiated adipocytes were incubated in 24-well plates. The adipocytes (at day 10) were treated with oligo-peptoplexes prepared by luciferase plasmid DNA, plain DMEM medium, and ATS-9R at predetermined charge ratios. PEI polyplexes were used as the control.
(§7) After 48 h of transfection, 50 μl of MTT reagent was added to 500 μl medium in each well and incubated for 3 h at 37° C. The culture media were removed and 500 μl dimethyl sulfoxide (DMSO) was added to each well and incubated for 20 min at room temperature. Absorbance was measured at 570 nm.
(§8) 3T3-L1 differentiated adipocytes at day 10 were transfected with the oligo-peptoplexes. After 48 h of transfection, cell viability was analyzed by MTT assay (n=6).

[6] = test system: 3T3-L1 differentiated adipocytes; assay: In vitro cytotoxicity (MTT) assay; assay type: cell-based; conditions: adipocytes at day 10, 48 h after transfection
Method: as §5, §6, §7, §8

[7] = test system: 3T3-L1 differentiated adipocytes; assay: In vitro transfection efficiency (luciferase assay); assay type: cell-based; conditions: charge ratio of 5, mature adipocytes at day 10, 72 h
Method: A luciferase assay kit was purchased from Promega (USA). A DC protein assay kit and bovine serum albumin standard were purchased from Bio-Rad Laboratories (USA). 3T3-L1 preadipocytes and differentiated adipocytes were seeded in 24 well plates.
Oligo-peptoplexes were prepared by mixing ATS-9R and 2 μg of luciferase plasmid DNA at a charge ratio of 5. R9 and PEI polyplexes were used as controls and prepared at a charge ratio of 5.
The cell lysates were then scraped, harvested, transferred to 1.5 ml microtubes, and centrifuged for 3 min at 13,000 rpm.
The luminescence of the cell lysates was measured on a 96-well plate luminometer (Berthold Detection Systems, Germany) with 20-second integration and expressed as relative luminescence units (RLU)/mg of cell protein. Protein concentration was determined by the DC protein assay kit with bovine serum albumin standard.
Mature adipocytes at day 10 of differentiation were transfected with p-β-Luci by ATS-R9, R9, and PEI at a charge ratio of 5.
To determine an optimum transfection time point, 3T3-L1 differentiated adipocytes were transfected with luciferase plasmid DNA (p-β-Luci) by ATS-R9 and PEI at a charge ratio of 5 at different days of differentiation.

[8] = test system: diet-induced obesity (DIO) mice; assay: In vivo fat homing (pCLE, Cellvizio); conditions: FITC-conjugated peptide, tail vein injection, obese mice
Method: C57BL/6J mice at 3 weeks of age were purchased from Central Lab Animal Inc. (Korea). For the first two weeks, the mice were fed 50% normal diet and 50% rodent diet with 60 kcal % from fat. […] The mice became obese after week 14 (body weight>45 g).
FITC conjugated ATS-9R (10 mg/ml) and FITC-9R (10 mg/ml) were diluted in PBS to a final concentration of 1.5 mg/ml and 100 μl of peptide was injected into obese mice by tail vein injection. Immediately after injection, peptide localization in vasculatures of different organs was observed by Cellvizio (Mauna Kea Technologies, France).
In this example, in vivo experiments were conducted using diet-induced obesity (DIO) mice. FITC-ATS-R9 was administered to the obese mice by tail vein injection to observe the targeting of the ATS-R9 to adipose tissue. Tracking was visualized using probe-based confocal laser endomicroscopy (pCLE, Cellvizio).

C57BL/6J obese mice = assay: In vivo internalization into adipose tissue and gene expression
Method: FITC-conjugated ATS-R9 was administered to C57BL/6J obese mouse by tail vein injection. Rhodamine-conjugated lectin was injected to stain blood vessels.
FITC-conjugated ATS-R9 was injected into C57BL/6J obese mice and fixed adipose tissue sections were incubated with biotin-conjugated anti-FITC antibody. Cy3-conjugated ExtrAvidin was used for signal amplification thereof. Images were observed using a multiphoton confocal laser scanning microscope.
Finally, in vivo gene expression was confirmed. To this end, red fluorescence protein (RFP) expressing plasmid was concentrated by FITC-ATS-R9 and the oligo-peptoplexes were injected into C57BL/6J obese mice. Non-treated mice were used as controls. Images were observed using a multiphoton confocal laser scanning microscope.

Fabp4 gene = assay: fabp4 sh-RNA gene silencing (RT-PCR); assay type: cell-based; conditions: 3T3-L1 mature adipocytes, 2 μg of fabp4 sh-RNA
Method: First, 3T3-L1 mature adipocytes were transfected with 2 μg of fabp4 sh-RNA by ATS-R9, PEI, and lipofectamine and gene silencing efficiency was measured by RT-PCR. GAPDH was used as an endogenous control. As a result, the Fabp4 gene silencing efficiency was 70% or more (FIG. 15).

obese adipocytes = assay: Comparison of gene delivery ability (luciferase gene); assay type: cell-based
Method: The ability of ATS-R9 to deliver luciferase gene to obese adipocytes was evaluated. PEI and lipofectamine were used as controls.
Gene delivery efficacies before and after adipocyte differentiation were compared.
Luciferase was used as a gene to be delivered and scrambled ATS was used as a fat-targeting sequence. The ability of (scrambled ATS)-R9 to deliver the gene to obese adipocytes was compared to that of ATS-R9.

prohibitin = target: T1, prohibitin (Mus musculus, UniProt P67778); assay: Binding of ATS to prohibitin (immunoprecipitation assay)
T1 construct: endogenous in cells; host or cells: 3T3-L1 preadipocytes and differentiated mature adipocytes (day 10)
T1 sequence (P67778 1-272): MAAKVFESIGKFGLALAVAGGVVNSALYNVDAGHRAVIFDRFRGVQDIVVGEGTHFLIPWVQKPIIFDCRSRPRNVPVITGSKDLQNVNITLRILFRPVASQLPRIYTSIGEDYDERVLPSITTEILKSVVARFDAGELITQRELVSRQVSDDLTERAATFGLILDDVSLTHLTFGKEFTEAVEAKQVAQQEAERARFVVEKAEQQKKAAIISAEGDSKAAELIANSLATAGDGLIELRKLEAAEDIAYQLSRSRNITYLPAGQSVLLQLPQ
Method: (§9) To investigate the location and amount of prohibitin expressed depending on the degree of adipocyte differentiation, two types of adipocytes were treated with rhodamine B-labeled ATS (RhoB-ATS).
(§10) Binding of ATS to prohibitin was determined by an immunoprecipitation assay (FIG. 5a) and the distributions of prohibitin in 3T3-L1 preadipocytes and mature adipocytes were confirmed through the staining results (FIGS. 5b and 5c).

3T3-L1 mature adipocytes = assay: Targeting of rhodamine B-labeled ATS depending on degree of differentiation; assay type: cell-based; conditions: RhoB-ATS
Method: as §9, §10

3T3-L1 preadipocytes [9] = assay: as above; assay type: cell-based; conditions: RhoB-ATS
Method: as §9, §10

C[C@H](NC(=O)[C@H](CCCNC(=N)N)NC(=O)CNC(=O)CNC(=O)[C@H](CCCCN)NC(=O)[C@@H](N)CS)C(=O)N[C@@H](CCCCN)C(=O)N[C@@H](CC(=O)O)C(=O)N[C@@H](CCCNC(=N)N)C(=O)N[C@@H](CCCNC(=N)N)C(=O)N[C@@H](CCCNC(=N)N)C(=O)N[C@@H](CCCNC(=N)N)C(=O)N[C@@H](CCCNC(=N)N)C(=O)N[C@@H](CCCNC(=N)N)C(=O)N[C@@H](CCCNC(=N)N)C(=O)N[C@@H](CCCNC(=N)N)C(=O)N[C@@H](CCCNC(=N)N)C(=O)N[C@@H](CS)C(=O)O [ATS-R9] (H-CKGGRAKDRRRRRRRRRC-OH; N-terminus and C-terminus assumed)
strong fluorescence signals / steady state maintained [1]: 48 h | time to reach the cytoplasm [1]: ≤ 15 min | time to reach the nuclei [1]: ≤ 1 h | migration to the nuclei observed after (3T3-L1 preadipocytes [2]): > 48 h | DNA condensation (no DNA migration) [3]: complete DNA condensation | DNA degradation in serum (Serum protection assay): protected DNA from degradation | size of condensed DNA complex ([4]; ATS-R9 bound to DNA, neutral conditions): ≤ 200 nm | zeta potential ([4]; charge ratio of ≧1 (description)): positive | viability at 48 h [5]: ≥ 90% | toxicity to differentiated adipocytes [6]: non-toxicity | transfection efficiency (luciferase gene expression) [7]: higher transfection efficiency and gene expression efficiency than PEI and R9 | aggregation in fat pad vasculatures [8]: aggregated in the fat pad vasculature | aggregation in the other organs (liver, kidney) [8]: no aggregation was observed | binding to fat pad microvessels [8]: bound to the fat pad microvessels | internalization into in vivo adipose tissues (C57BL/6J obese mice; tail vein injection, multiphoton confocal microscopy): penetrated the blood vessels and was gradually internalized into adipocytes | Fabp4 gene silencing efficiency (Fabp4 gene): ≥ 70% | gene delivery efficacy as differentiation into obese adipocytes proceeded (obese adipocytes; before and after adipocyte differentiation): increased | gene delivery efficacy to obese adipocytes (obese adipocytes; luciferase gene, PEI and lipofectamine as controls): superior to those of the other delivery systems PEI and lipofectamine

CKGGRAKDC (optionally rhodamine B labeled; Synthetic peptide adipocyte targeting sequence) [ATS, used free or rhodamine B-labeled]
ability to bind to prohibitin (prohibitin): high ability to bind to prohibitin | targeting efficiency / delivery to obese cells after differentiation (3T3-L1 mature adipocytes): effectively delivered; also recorded: very high | targeting efficiency to adipocytes before differentiation (3T3-L1 preadipocytes [9]): not significantly high

CRRRRRRRRRC (C[dR][dR][dR][dR][dR][dR][dR][dR][dR]C; cysteine pairing not given here) [R9, reference compound]
aggregation in fat pad vasculatures [8]: aggregation was not observed in the fat vasculatures | binding to fat pad microvessels [8]: no binding

FITC-ATS-R9: FITC conjugated ATS-R9 (CKGGRAKDRRRRRRRRRC), SEQ ID NO: 2 (not fully specified (N-terminus); cysteine pairing not given here; also: FITC conjugated, site not given here)
in vivo RFP gene expression (C57BL/6J obese mice; RFP expressing plasmid concentrated by FITC-ATS-R9): clearly confirmed | adipose tissue homing (immunofluorescence assay) (C57BL/6J obese mice; anti-FITC antibody, Cy3-ExtrAvidin): confirms the induction
